Data on 27 compounds can be found in patent US5008282A, “Cyclic guanidine derivatives, anti-ulceratives and methods of manufacturing the same” (Kotobuki Seiyaku Co. Ltd., priority 1988, dated 1991).

For test [1], the target named is T1, (H^+, K^+)ATPase (Sus scrofa, UniProt P19156).
T1 construct: ATPase is prepared from the pig gastric mucosa; from tissue; host or cells: pig gastric mucosa
The test is described as follows: Inhibition of (H^+, K^+)ATPase activities. The test is classed as biochemical. The note with it: pig gastric mucosa ATPase; pH 7.4; 2 mM MgCl2; 10 mM KCl; 37° C; read-out: (H^+,K^+)ATPase IC50 (Concentration of 50% inhibition). Here is the method: Inhibition of (H^+, K^+)ATPase activities. Inhibition of (H^+, K^+)ATPase activities is determined by the method of F. Fellenius et al., [Nature 290, 159-61, (1981)]. (H^+, K^30 )ATPase is prepared from the pig gastric mucosa and the test compound is incubated with 2 mM of […], 40 mM of tris-buffer (pH 7.4), 2 mM of MgCl2 and 10 mM of KCl at 37° C. Inorganic phosphate occurring by stimulation of ATPase is determined.

The test system of test [2] is histamine-stimulated acid secretion. The test is described as follows: Inhibitory activities of gastric-acid secretion in the acute fistula rat. The test is classed as in vivo. The note with it: 50 mg/kg oral, histamine.2HCl 10 mg/kg s.c. 4 hours after compound, Male Wistar rats, read-out: Total acid inhibition (inhibitory percent of compounds on histamine-stimulated acid secretion). The protocol: Inhibitory activities of gastric-acid secretion in the acute fistula rat.
Determination of gastric-acid secretion is performed by the method of Y. Goto et al.(Expenentia 32, 946, (1976)). Male Wistar rats are anesthetized with urethane (1.2 g/kg, i.p.) 2 hours after the oral administration of compounds. A dual polyethylene cannula is introduced into the gastric lumen after ligation of the pylorus and the esophagus. The stomach is rinsed with 5 ml of saline through the gastric cannula at 15 min interval. The acid output during 15 minutes period is titrated with 0.01N NaOH. Histamine.2HCl (10 mg/kg, s.c.) is administered as a secretory agent 4 hours after the administration of compounds.

Structures can show the parent of a compound that is named as a salt.

T1 sequence (P19156 2-1034 limits assumed): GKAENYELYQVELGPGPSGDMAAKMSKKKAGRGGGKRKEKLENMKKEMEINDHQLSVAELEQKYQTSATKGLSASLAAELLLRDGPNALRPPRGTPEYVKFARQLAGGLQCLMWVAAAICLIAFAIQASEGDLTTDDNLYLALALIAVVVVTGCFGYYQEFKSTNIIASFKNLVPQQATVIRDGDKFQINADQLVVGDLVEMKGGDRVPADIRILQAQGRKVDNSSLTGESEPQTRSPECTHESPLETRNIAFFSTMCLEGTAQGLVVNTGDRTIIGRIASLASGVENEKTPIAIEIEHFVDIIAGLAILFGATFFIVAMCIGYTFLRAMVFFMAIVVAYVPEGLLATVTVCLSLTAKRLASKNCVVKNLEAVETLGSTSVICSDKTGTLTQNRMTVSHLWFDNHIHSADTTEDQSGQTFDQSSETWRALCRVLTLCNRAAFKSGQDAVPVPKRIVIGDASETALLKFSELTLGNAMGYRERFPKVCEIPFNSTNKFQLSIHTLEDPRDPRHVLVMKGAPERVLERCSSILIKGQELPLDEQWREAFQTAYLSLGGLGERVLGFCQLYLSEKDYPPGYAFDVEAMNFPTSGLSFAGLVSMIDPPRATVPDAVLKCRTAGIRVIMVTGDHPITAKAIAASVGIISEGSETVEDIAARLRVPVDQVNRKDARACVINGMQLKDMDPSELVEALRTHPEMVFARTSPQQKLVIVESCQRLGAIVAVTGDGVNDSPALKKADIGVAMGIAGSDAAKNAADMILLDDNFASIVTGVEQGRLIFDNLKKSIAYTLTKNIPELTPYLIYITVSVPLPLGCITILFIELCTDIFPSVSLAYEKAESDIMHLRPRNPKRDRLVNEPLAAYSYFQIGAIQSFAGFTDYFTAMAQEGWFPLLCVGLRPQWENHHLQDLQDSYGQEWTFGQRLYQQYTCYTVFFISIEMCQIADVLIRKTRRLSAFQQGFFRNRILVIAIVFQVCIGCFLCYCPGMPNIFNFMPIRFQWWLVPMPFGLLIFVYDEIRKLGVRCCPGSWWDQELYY
T1 sequence (P18434 whole entry partner): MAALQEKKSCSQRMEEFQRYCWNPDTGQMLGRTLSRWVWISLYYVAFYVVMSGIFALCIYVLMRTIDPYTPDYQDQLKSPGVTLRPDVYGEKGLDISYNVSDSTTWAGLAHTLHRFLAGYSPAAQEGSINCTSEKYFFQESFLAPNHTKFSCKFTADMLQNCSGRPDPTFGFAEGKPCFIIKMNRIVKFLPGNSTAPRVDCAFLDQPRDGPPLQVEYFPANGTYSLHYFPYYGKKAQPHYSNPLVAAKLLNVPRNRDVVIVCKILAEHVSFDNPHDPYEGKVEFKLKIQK

On to `COCCC(=O)Sc1c(C)nc2nc3cccccc3n12` [Compound 75, 3-(3-MethoxyPropionyl)thio-2-methyl-cyclohept[d]imidazo[1,2-a]imidazole], for which the IC50 in test [1] came out at 55.1 µM.
On to `CC#CCSc1c2ccccn2c2nc3c(n12)CCCCC3` [Compound 19, 13-(2-Butynyl)thio-pyrido[1',2':3,4]imidazo[1,2-a]-7,8,9,10,11pentahydro-cycloheptimidazole], for which the IC50 in test [1] was 47.3 µM.
For the compound `O=C(Sc1c(-c2ccccc2)nc2nc3cccccc3n12)c1ccccn1` [Compound 48, 3-(Picolinoyl)thio-2-phenyl-cyclohept[d]imidazo[1,2-a]imidazole], in test [1], the IC50 is 2.72 µM.
As to `CC(=O)Sc1c(-c2ccc(Cl)cc2)nc2nc3cccccc3n12` [Compound 57, 3-(acetyl)thio-2-(4-chlorophenyl)-cyclohept[d]imidazo[1,2-a]imidazole], the IC50 in test [1] came out at 0.79 µM.
Turning to `Cn1ccn2c(SC(=O)COc3ccccc3)c(-c3ccccc3)nc12` [Compound 92, 5-(Phenoxyacetyl)thio-6-phenyl-1-methyl-1H-imidazo[1,2-a]imidazole], the IC50 in test [1] is 16 µM. For the same compound, the inhibition in vivo at 50 mg/kg in test [2] was found to be 65.6%.
On to `CCC(=O)Sc1c2ccccn2c2nc3c(n12)CCCCC3` [Compound 21, 13-(Propionyl)thio-pyrido[1',2':3,4]imidazo[1,2-a]-7,8,9,10,11pentahydro-cycloheptimidazole fumarate], for which, in test [1], the IC50 turned out to be 18.1 µM. In addition, the inhibition in vivo at 50 mg/kg in test [2] was found to be 64.9%.
On the same counts, the results for `C/C=C/C(=O)Sc1c(C)nc2nc3cccccc3n12` [Compound 69, 3-(Crotonoyl)thio-2-methyl-cyclohept[d]imidazo[1,2-a]imidazole] are 22.7 µM and 83.5%.
For `CC(=O)Sc1c(-c2ccccc2)nc2nc3cccccc3n12` [Compound 34, 3-(Acetyl)thio-2-phenyl-cyclohept[d]imidazo[1,2-a]imidazole], in test [1], the IC50 was found to be 2.47 µM. Also, in test [2], the inhibition in vivo at 50 mg/kg was 76.6%.
As to `C=CCSc1c2ccccn2c2nc3c(n12)CCCCC3` [Compound 16, 13-(2-Propenyl)thio-pyrido[1',2':3,4]imidazo[1,2-a]-7,8,9,10,11pentahydro-cycloheptimidazole], the IC50 in test [1] turned out to be 16.5 µM.
Turning to `CC(=O)Sc1c(-c2ccc(F)cc2)nc2nc3cccccc3n12` [Compound 55, 3-(acetyl)thio-(4-fluorophenyl)-cyclohept[d]imidazo[1,2-a]imidazole], the IC50 in test [1] stood at 1.4 µM.
As for `C#CCSc1c2ccccn2c2nc3c(n12)CCCCC3` [Compound 18], in test [1], the IC50 is 3.06 µM.
Regarding `CCCCC(=O)Sc1c(-c2ccccc2)nc2nc3ccc(C(C)C)ccc3n12` [Compound 53, 3-(valeryl)thio-2-phenyl-7-isopropyl-cyclohept[d]imidazo[1,2-a]imidazole], the IC50 in test [1] was found to be 1.95 µM. Besides, in test [2], the inhibition in vivo at 50 mg/kg was found to be 73.7%.
With `Cc1nc2nc3cccccc3n2c1SC(=O)c1ccccc1` [Compound 77, 3-(Benzoyl)thio-2-methyl-cyclohept[d]imidazo[1,2-a]imidazole], the inhibition in vivo at 50 mg/kg in test [2] worked out at 82.5%.
Take `Cc1nc2nc3cccccc3n2c1SC(=O)c1ccccn1` [Compound 76, 3-(Picolinoyl)thio-2-methyl-cyclohept[d]imidazo[1,2-a]imidazole]: in test [2], the inhibition in vivo at 50 mg/kg amounted to 83.7%.
For `Cc1nc2nc3cccccc3n2c1SC(=O)C(C)C` [Compound 81, 3-(isobutyryl)thio-2-methyl-cyclohept[d]imidazo[1,2-a]imidazole], the IC50 in test [1] turned out to be 2.79 µM. In addition, in test [2], the inhibition in vivo at 50 mg/kg is 79.8%.
On the same counts, the results for `CCC(=O)Sc1c(C)nc2nc3cccccc3n12` [Compound 66, 3-(Propionyl)thio-2-methyl-cyclohept[d]imidazo[1,2-a]imidazole] are 17.5 µM and 63.7%.
Take `c1ccn2c(c1)c(SCCN1CCCCC1)n1c3c(nc12)CCCCC3` [Compound 23, 13-[2-(1-Piperidino)ethyl]thio-pyrido[1',2':3,4]imidazo[1,2-a]7,8,9,10,11-pentahydro-cycloheptimidazole]: the IC50 in test [1] came to 91.3 µM.
On to `C=CC(=O)Sc1c(-c2ccccc2)nc2nc3cccccc3n12` [Compound 37, 3-(Acryloyl)thio-2-phenyl-cyclohept[d]imidazo[1,2-a]imidazole], for which the IC50 in test [1] came to 2.2 µM. For the same compound, in test [2], the inhibition in vivo at 50 mg/kg was determined as 51.5%.
Regarding `COCC(=O)Sc1c(-c2ccccc2)nc2nc3cccccc3n12` [Compound 43, 3-(Methoxyacetyl)thio-2-phenyl-cyclohept[d]imidazo[1,2-a]imidazole], the IC50 in test [1] came out at 2.23 µM. In addition, the inhibition in vivo at 50 mg/kg in test [2] turned out to be 53.8%.
Consider `CCC(=O)Sc1c(-c2ccccc2)nc2nc3cccccc3n12` [Compound 35, 3-(Propionyl)thio-2-phenyl-cyclohept[d]imidazo[1,2-a]imidazole], for which the IC50 in test [1] turned out to be 10.5 µM. Besides, the inhibition in vivo at 50 mg/kg in test [2] came to 54%.
As for `Cc1nc2nc3cccccc3n2c1SC(=O)C(C)(C)C` [Compound 68, 3-(Pivaloyl)thio-2-methyl-cyclohept[d]imidazo[1,2-a]imidazole], the inhibition in vivo at 50 mg/kg in test [2] is 73.9%.
On to `COCC(=O)Sc1c(C)nc2nc3cccccc3n12` [Compound 72, 3-(Methoxyacetyl)thio-2-methyl-cyclohept[d]imidazo[1,2-a]imidazole], for which the IC50 in test [1] amounted to 5.9 µM.
With `C/C=C/C(=O)Sc1c(-c2ccccc2)nc2nc3cccccc3n12` [Compound 38, 3-(Crotonoyl)thio-2-phenyl-cyclohept[d]imidazo[1,2-a]imidazole], in test [1], the IC50 is 13.3 µM. In test [2], the inhibition in vivo at 50 mg/kg turned out to be 63.4%.
For `CCCCC(=O)Sc1c(C)nc2nc3cccccc3n12` [Compound 82, 3-(valeryl)thio-2-methyl-cyclohept [d]imidazo[1,2-a]imidazole], the inhibition in vivo at 50 mg/kg in test [2] was 81.2%.
On to `COCCC(=O)Sc1c(-c2ccccc2)nc2nc3cccccc3n12` [Compound 44, 3-(3-Methoxypropionyl)thio-2-phenyl-cyclohept[d]imidazo[1,2-a]imidazole], for which the IC50 in test [1] turned out to be 8.75 µM. In test [2], the inhibition in vivo at 50 mg/kg was 80.7%.
Take `CC(=O)Sc1c(C)nc2nc3cccccc3n12` [Compound 65, 3-(Acetyl)thio-2-methyl-cyclohept[d]imidazo[1,2-a]imidazole]: in test [2], the inhibition in vivo at 50 mg/kg turned out to be 68.8%.
`CCC(=O)Sc1c(-c2ccccc2)nc2n(C)c3ccccc3n12` [Compound 87, 3-(Propionyl)thio-2-phenyl-9-methyl-9H-imidazo[1,2-a]benzimidazole]: the IC50 in test [1] is 25.8 µM. Further, the inhibition in vivo at 50 mg/kg in test [2] is 53.8%.
